Assay results taken from patent US7943296B2, “Methods of screening using a natriuretic peptide receptor” (Oregon Health & Science University, priority 2005, dated 2011).

Key:
PKG = target: T1, PKG (Rattus norvegicus, UniProt A9LNM8); test: Co-immunoprecipitation of PKG with FLAG-tagged NPRA fragments in primary CFs; format: binding; conditions: 5'-FLAG-tagged fragment in transfected CFs, anti-FLAG M2 affinity gel
T1 construct: endogenous in cells; host or cells: primary neonatal rat cardiac fibroblasts transfected with 5'-FLAG sNRF fragments
T1 sequence (A9LNM8 1-671): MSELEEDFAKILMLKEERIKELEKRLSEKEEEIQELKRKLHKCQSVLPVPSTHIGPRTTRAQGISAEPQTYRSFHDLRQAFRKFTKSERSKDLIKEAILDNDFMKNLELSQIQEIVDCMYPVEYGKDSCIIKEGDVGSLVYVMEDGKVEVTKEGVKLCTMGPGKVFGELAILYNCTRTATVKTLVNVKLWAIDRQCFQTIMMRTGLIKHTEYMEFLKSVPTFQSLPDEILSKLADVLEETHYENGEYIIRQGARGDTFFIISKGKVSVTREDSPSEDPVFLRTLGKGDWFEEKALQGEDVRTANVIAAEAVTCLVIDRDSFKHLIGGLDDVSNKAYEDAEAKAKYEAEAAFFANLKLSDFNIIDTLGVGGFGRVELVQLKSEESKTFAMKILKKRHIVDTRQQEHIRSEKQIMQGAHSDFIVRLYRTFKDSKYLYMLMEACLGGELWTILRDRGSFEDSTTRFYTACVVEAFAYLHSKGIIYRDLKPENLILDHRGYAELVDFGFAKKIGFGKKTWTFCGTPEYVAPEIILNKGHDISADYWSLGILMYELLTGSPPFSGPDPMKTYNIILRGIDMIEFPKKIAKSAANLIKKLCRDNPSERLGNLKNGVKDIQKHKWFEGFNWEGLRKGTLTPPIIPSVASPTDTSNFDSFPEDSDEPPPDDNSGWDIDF
Procedure: Neonatal rat ventricular fibroblasts (CFs) were cultured from 1 to 2-day-old Harlan Sprague-Dawley rats as described previously (Simpson, Circulation Res. 56:884-94, 1985). Briefly, ventricles were dissected free from atria and quartered. Following dissociation in ADS buffer containing 1.5 mg/ml trypsin (Gibco #27250-018) and 1% DNase solution (2 mg/ml DNase type II, 150 mM NaCl) with serum neutralization the collected cells were pre-incubated in media at 37° C. for 90 minutes to allow CF attachment to the bottom of culture dishes. CFs were incubated in plating media for 48 hours, divided into 6-well culture plates or dual-well chamberslides, and grown to 50% confluency in DMEM with 10% FBS prior to use.
CFs were transiently transfected with nucleic acid molecules encoding sNRF^(806-1061), sNRF^(806-900), or sNRF^(806-860) using routine methods. Briefly, PCR-generated, 5′-FLAG epitope-tagged sNRFs were subcloned into the BamHI and EcoRI sites of pCDNA3 (Invitrogen) and sequenced to verify construction accuracy. […]
The ability of the NPRA fragments to immunoprecipitate PKG was determined in the primary CF cells transfected with the 5′-FLAG epitope-tagged NPRA fragments as follows. […] Bound antibody was detected with chemiluminescent substrate (Western Lightning ECL, PerkinElmer Life Sciences).

[1] = tested on: cardiac fibroblasts (CFs); test: bFGF-induced α-SMA protein expression in CFs (Western blot); format: cell-based, rat; conditions: fragment expressed; 10 ng/ml FGF 48 hours; 100 nM ANP
Procedure: (§1) NP's ability to inhibit growth factor-induced CF differentiation into myofibroblasts was determined as follows. CFs were transiently transfected with insertless pcDNA3 vector or pcDNA3 encoding sNRF^(806-900) (see Example 7). The transfected CFs were then treated for 48 hours with 10 ng/ml basic fibroblast growth factor (FGF; Sigma-Aldrich #F0291) in the presence or absence of 100 nM ANP. Alpha-smooth muscle actin (α-SMA) protein expression, the principal marker of CF differentiation, was assessed by Western blotting and immunofluorescence microscopy. Vimentin staining was used as a loading control because it is expressed equally in fibroblasts and transdifferentiated myofibroblasts.

[2] = tested on: cardiac fibroblasts (CFs); test: Vimentin localisation in CFs by immunofluorescence microscopy; format: cell-based, rat; conditions: fragment expressed
Procedure: as §1
For the immunofluorescence microscopy, slide wells were treated as described in Example 7 and incubated with anti-α-SMA and anti-vimentin antibody as well as phalloidin to stain for actin. Briefly, cells were rinsed twice with phosphate-buffered saline (PBS) and fixed with 3.7% formaldehyde in PBS for 10 minutes. After fixation, cells were rinsed with PBS and permeabilized with 0.3% Triton X-100 in PBS for 10 minutes and blocked for 1 hour in 1% horse serum, 0.2% bovine serum albumin in PBS. Cells were then incubated with primary α-SMA antibody (ABCAM ab7817) and primary vimentin antibody (ABCAM ab7783) diluted in blocking solution for 1 hour and washed three times with blocking solution for 5 minutes. […]

co-immunoprecipitation of PKG (PKG): co-immunoprecipitated PKG
Substance: sNRF^(806-900): intracellular NPRA fragment, residues 806-900, excludes the cyclase-containing domain; shortest fragment observed to associate with PKG
ANP's inhibitory effect on growth factor-induced α-SMA protein expression [1]: reversed ANP's inhibitory effect
ANP-associated nuclear to cytosolic translocation of vimentin [2]: inhibited
